Measurements reported in patent publication US20110110891A1, “Methods of Treating Hepatitis C Virus Infection” (priority 2008, published 2011).

How the values were obtained:
HCV [1] = assay: HCV RNA in supernatant of eGFP-Jc1 transfected Huh7.5 cells (qRT-PCR); type: cell-based, Hepatitis C virus; details: 10 μM, Day 3
Procedure: (§1) Day 0: Huh7.5 cells were transfected with an eGFP-Jc1 reporter construct RNA via electroporation (10 μg RNA per 4×10^6 cells). The eGFP-Jc1 reporter construct is a modified version of the Jc1 (J6/C3 chimera) described by Pietschmann et al. (2006) PNAS 103(19): 7408-7413, in which an eGFP (enhanced green fluorescent protein)-IRES (internal ribosomal entry site) cassette has been inserted between the 5′UTR and the open reading frame of the Jc1 construct.
(§2) Transfected cells were then plated at 2×10^6 cells per T75 flask.
(§3) Day 1: The cells were washed 3 times and treated with 10 μl dimethylsulfoxide (DMSO) (control), 10 μM ERK Inhibitor II (FR180204Calbiochem) or 10 μM U0126 (Promega).
(§4) Day 3: The transfected Huh7.5 cells and the supernatant were harvested. The harvested cells and the supernatant were analyzed by quantitative reverse transcription-polymerase chain reaction (qRT-PCR) for levels of HCV RNA
(§5) Viral RNA in culture supernatants was isolated using RNA STAT-50 LS REAGENT (Tel Test). total cellular RNA or 10 μl of RNA of culture supernatant was used for cDNA synthesis using SuperScript III reverse transcriptase (Invitrogen) and random hexamer primers. Viral RNA levels were measured by quantitative real-time PCR using Taqman probes and corresponding primers.

HCV [2] = assay: Intracellular HCV RNA in eGFP-Jc1 transfected Huh7.5 cells (qRT-PCR); type: cell-based, Hepatitis C virus; details: 10 μM, Day 3
Procedure: as §1, with “The” for “Day 0: Huh7.5 cells were transfected with an eGFP-Jc1 reporter construct RNA via electroporation (10 μg RNA per 4×10^6 cells). The”
as §2, §3, §4
Total RNA was extracted from transfected cells using RNA STAT-60 REAGENT (Tel Test).
as §5

ERK-2 = ERK-2 (Homo sapiens, UniProt P28482); details: cited from earlier work
ERK-2, sequence (P28482 whole entry, species assumed): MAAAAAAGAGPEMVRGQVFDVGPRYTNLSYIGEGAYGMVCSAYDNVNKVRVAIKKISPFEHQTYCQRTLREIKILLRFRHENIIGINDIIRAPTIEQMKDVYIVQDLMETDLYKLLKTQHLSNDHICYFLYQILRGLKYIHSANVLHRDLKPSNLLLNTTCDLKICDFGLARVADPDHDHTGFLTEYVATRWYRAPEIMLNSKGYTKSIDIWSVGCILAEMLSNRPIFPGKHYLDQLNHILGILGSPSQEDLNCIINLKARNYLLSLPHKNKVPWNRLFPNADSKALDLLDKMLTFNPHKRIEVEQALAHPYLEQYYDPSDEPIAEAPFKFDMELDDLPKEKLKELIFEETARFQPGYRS

MEK-1 = MEK-1 (Homo sapiens, UniProt Q02750); details: in vitro; cited from earlier work
MEK-1, sequence (Q02750 whole entry, species assumed): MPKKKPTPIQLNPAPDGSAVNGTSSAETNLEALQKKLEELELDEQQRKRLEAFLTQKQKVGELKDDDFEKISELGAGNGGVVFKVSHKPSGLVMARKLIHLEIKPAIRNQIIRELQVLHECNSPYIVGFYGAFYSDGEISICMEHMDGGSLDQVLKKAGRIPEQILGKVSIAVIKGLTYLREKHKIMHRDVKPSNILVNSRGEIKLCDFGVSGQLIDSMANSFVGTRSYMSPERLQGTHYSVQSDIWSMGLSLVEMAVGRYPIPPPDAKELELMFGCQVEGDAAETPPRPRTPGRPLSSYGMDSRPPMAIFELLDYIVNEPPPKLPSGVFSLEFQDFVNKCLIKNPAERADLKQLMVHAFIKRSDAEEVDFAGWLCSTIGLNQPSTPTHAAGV

c-Src = c-Src (Homo sapiens, UniProt P12931); details: cited from earlier work
c-Src, sequence (P12931 whole entry, species assumed): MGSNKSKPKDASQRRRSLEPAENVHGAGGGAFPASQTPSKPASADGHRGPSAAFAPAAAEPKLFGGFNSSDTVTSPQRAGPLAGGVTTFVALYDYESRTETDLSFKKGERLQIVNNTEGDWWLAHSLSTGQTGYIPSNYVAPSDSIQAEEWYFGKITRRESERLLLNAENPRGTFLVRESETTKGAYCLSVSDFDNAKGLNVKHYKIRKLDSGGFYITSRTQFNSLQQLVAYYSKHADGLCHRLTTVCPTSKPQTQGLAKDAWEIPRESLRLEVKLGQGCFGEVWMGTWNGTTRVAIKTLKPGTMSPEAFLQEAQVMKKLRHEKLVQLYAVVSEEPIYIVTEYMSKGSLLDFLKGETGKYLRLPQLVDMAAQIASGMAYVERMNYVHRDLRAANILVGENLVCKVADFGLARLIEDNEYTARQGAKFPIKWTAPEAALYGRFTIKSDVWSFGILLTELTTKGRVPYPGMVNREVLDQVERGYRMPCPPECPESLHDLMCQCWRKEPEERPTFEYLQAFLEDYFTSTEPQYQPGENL

cdks = details: cited from earlier work
Mek = details: cited from earlier work
PI 3-kinase γ = PI 3-kinase γ (Homo sapiens, UniProt P48736); details: cited from earlier work
PI 3-kinase γ, sequence (P48736 whole entry): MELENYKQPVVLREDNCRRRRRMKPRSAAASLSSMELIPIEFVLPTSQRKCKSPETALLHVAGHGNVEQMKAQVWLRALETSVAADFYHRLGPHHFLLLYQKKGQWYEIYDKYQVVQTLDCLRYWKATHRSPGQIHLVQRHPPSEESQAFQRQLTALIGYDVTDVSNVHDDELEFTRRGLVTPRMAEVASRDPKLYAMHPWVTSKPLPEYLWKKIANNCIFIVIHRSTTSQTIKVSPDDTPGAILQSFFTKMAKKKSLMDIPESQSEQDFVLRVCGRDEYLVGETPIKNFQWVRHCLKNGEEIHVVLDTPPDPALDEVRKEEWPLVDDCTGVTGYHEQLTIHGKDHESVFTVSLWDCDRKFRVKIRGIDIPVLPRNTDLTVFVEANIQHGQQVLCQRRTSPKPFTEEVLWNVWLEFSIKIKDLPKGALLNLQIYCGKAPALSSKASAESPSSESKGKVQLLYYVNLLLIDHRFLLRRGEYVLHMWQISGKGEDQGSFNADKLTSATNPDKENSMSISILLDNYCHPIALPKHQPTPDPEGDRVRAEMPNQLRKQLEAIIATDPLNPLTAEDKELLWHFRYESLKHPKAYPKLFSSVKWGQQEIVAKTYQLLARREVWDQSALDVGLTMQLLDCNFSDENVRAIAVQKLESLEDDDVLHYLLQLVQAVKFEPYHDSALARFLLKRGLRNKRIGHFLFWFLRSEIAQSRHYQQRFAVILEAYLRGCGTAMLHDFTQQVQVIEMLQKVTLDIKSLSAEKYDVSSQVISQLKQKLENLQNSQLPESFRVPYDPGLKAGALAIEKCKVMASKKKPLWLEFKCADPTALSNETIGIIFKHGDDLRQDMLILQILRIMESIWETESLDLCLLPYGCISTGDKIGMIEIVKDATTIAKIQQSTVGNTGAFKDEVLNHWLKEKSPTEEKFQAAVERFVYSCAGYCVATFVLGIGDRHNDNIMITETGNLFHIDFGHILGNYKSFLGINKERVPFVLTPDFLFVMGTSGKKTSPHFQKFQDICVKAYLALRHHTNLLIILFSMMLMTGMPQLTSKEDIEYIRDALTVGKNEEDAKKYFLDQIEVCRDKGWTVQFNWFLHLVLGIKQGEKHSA

ERK = details: cited from earlier work
MEK 1/2 = details: cited from earlier work
HCV [3] = details: 10 μM, 1 h pretreatment, anti-CD81 single-round infection
Procedure: Virus: Transfection of Huh7.5 cells with eGFP-Jc1 reporter construct RNA via electroporation (10 μg RNA per 4×10^6 cells)
Harvest virus in the supernatant (Filter & Concentrate using Amicon MWCO 100): conc 10 ml to 200 μl after 3 days
Day 0: Plate Huh7.5 at 1×10^4 cells per well […] (24 well plate)
Day 1: Pretreat cells with 10 μl DMSO or 10 μM U0126 for 1 h
Infection with 50 μl conc. virus per well for 3 h at 37° C.
Addition of 10 μg/ml anti-CD81 antibody (α-CD81) for single-round infection
Day 4: Harvest infected cells for FACS analysis.

## Nc1n[nH]c2nnc(-c3c(-c4ccccc4)nn4ccccc34)cc12 [FR180204, 5-(2-phenylpyrazolo[1,5-a]pyridin-3-yl)-1H-pyrazolo[3,4-c]pyridazin-3-amine]
HCV [1]
  decrease in number of HCV copies per ml supernatant compared with control treated cells: ~50%
HCV [2]
  level of intracellular HCV RNA per μg total RNA: increased

## Cc1cc(O)c2c(=O)c3c(O)cc(O)c4c5c(O)cc(O)c6c(=O)c7c(O)cc(C)c8c1c2c(c34)c(c78)c65 [Hypericin]
ERK-2
  IC50: 4 nM

## COc1cc(O)c2c(c1)/C=C/C[C@]1(O)C(C=CC(=O)[C@H]1O)[C@H](C)OC2=O (stereo partly drawn) [L-783,277]
MEK-1
  IC50: 4 nM

## Cc1cc(I)ccc1Nc1c(C(=O)NOCC2CC2)cc(F)c(F)c1F [PD198306, N-(Cyclopropylmethoxy)-3,4,5-trifluoro-2-[(4-iodo-2-methylphenyl)amino]-benzamide]
c-Src
  IC50: > 4 µM
cdks
  IC50: > 4 µM
Mek
  concentrations inhibiting Mek activity in synovial fibroblasts: 30 to 100 nM
PI 3-kinase γ
  IC50: > 10 µM
ERK
  IC50: > 1000 nM
MEK 1/2
  concentration inhibiting isolated enzyme: 8 nM

## COc1cc(O)c2c(c1)/C=C/C[C@@]1(O)C(C=CC(=O)[C@H]1O)[C@H](C)OC2=O (some centres unmarked) [Ro 09-2210]
MEK-1
  IC50: 60 nM

## N#CC(=C(/N)Sc1ccccc1N)/C(C#N)=C(\N)Sc1ccccc1N [U0126, 1,4-Diamino-2,3-dicyano-1,4-bis(2-aminophenylthio)butadiene]
HCV [1]
  HCV copies per ml supernatant relative to supernatant of control treated cells: one third
HCV [3]
  viral entry detected by GFP expression: HCV entered the cells
HCV [2]
  level of intracellular HCV RNA per μg total RNA: increased
